Laboratory results as given in EP1488698A1, “Compositions for descreasing intracellular inositol trisphosphate concentration and uses thereof” (priority 1995, dated 1997).
Entries after “also recorded” stand apart in the source; their conditions may differ. Read-outs that look alike come from different tables or passages of the source.

Columns and labels:
hippocampal neurons [1] = assay: Histological analysis of brain (cresyl violet) seven days after ICV infusion; assay type: in vivo; details: Quisqualate 500 µmoles ICV, rats
[2] = test system: primary chick cortical neurons; assay: Phosphoinositide hydrolysis assay (InsP3 production) in cultured primary cortical neurons; assay type: cell-based; details: Gallus gallus, Cortical neurone, 20 min, read-out: Ins-P-n
Protocol: The neurons were seeded in 24-well plastic tissue culture plates that had been coated with L-polylysine.
Receptor-stimulated and basal unstimulated hydrolysis of phosphoinositides was measured by the following procedure. […] The cells were then washed twice with 1 ml Dulbecco's phosphate-buffered saline (PBS) and 0.5 ml of PBS containing 4.5 g/L glucose was added. Sphingosine, psychosine, lysosulphatide, or lysosphingomyelin, prepared as the hydrochloride salt dissolved in water, were then added to produce the desired extracellular concentration in specific wells, […] The cells were then washed twice with 1 ml PBS, and pre-incubated for 15 minutes at 37°C with 0.5 ml PBS containing 10 mM LiCl and the compound to be tested was added. […] The tubes were vortexed thoroughly, then centrifuged at 500 x g for 5 minutes to separate the aqueous and chloroform phases. For each sample, a 1.5-ml aliquot of the upper (aqueous) phase was applied to a small column containing BioRad AG1X8 resin (formate form). Free [^3H]inositol and [^3H]glycerophosphoinositol were washed through the column with 5 ml of a solution containing 5 mM sodium borate and 60 mM sodium formate. The total phosphorylated [^3H] inositol fraction was eluted from the column for radiometric scintillation spectrometry analysis with 3 ml 1.0 M ammonium formate/0.1 M formic acid.
In addition, a 0.5 ml aliquot of the lower (chloroform) phase of each sample was analyzed radiometrically by scintillation spectrometry in order to determine the quantity of lipid-bound [^3H]myo-inositol. Estimation of phosphoinositide hydrolysis by phospholipase C is based upon the quantity of [^3H]inositol phosphates produced, and is expressed as the percentage of the latter relative to total free and componential [^3H]inositol (dpm ammonium formate + dpm chloroform fractions).

[3] = Behavioral analysis after ICV infusion (quisqualate excitotoxicity model); assay type: in vivo, rats; details: rat, in vivo, icv or intrathecal, rats
Protocol: (§1) The animals used in this experiment were male F344 rats (Charles River Breeding Laboratories). The animals were housed individually, exposed to a 12-hour light-dark cycle, and allowed free access to food and water. The animals weighed approximately 250 g at the beginning of each experiment and were weighed daily. In addition, the animals were habituated to handling before each experiment.
(§2) Before administering various compounds, the animals were anesthetized with sodium pentobarbital (50 mg/kg, i.p.) and positioned in a sterotaxic instrument. A 26 gauge cannula was inserted into the cerebral ventricle at the following co-ordinates: 1.0 mm posterior to bregma, 1.5 mm lateral to the midline, and 4.0 mm below the dorsal surface of the neocortex. Cannulas were capped and fixed in place with dental cement. One week after cannulation, 10 µl of each of the treatment drugs was infused, ICV (i.e. into the ventricals of the brain), via a micropump at a rate of 10 µl/min. For this procedure, the animals were lightly restrained and unanesthetized. Following administration of the compound, the infusion cannula remained in position for one minute, after which the permanent in situ cannula was capped.
(§3) The compounds administered were obtained from a commercial supplier (Sigma Chemical Co., St. Louis, MO) and dissolved in saline prior to injection. These compounds included quisqualate (injected at doses ranging from 100 nmole/10 µl to 1 µmole/10 µl), lysocerebroside, and lysophingomyelin (which were injected at doses of 25 nmoles/10 µl to 150 nmoles/10 µl).
(§4) Pilot studies identified several specific behavioral measures that could be used to indicate excessive activation of the metabotropic receptor (see Table 3). […] The experiments that follow were based on an analysis of these behaviors over a two hour period after administration of the compounds of the invention. Behavioral observation was carried out by two trained observers, who worked independently of one another and who were blind to the experimental groups. […] Frequency and duration means were computed by subtracting pre-infusion means from post-infusion means.
(§5) The experiment began one week after ICV cannulation. […] Following the baseline observation period, animals received the first of two ICV infusions (all infusions were of a 10 µl volume that was administered over a 1 minute period). For the first five groups listed above, this consisted of saline (10 µl/minute), for the following 3 groups the infusions were psychosine at 125 nmoles, lysosphingomyelin at 125 nmoles, or lysosphingomyelin at 150 nmoles, respectively. Thirty minutes later, all animals received the second infusion which, for the first five groups listed above, consisted of saline, quisqualate at 225 nmoles, psychosine at 125 nmoles, lysosphingomyelin at 125 nmoles, and lysosphingomyelin at 150 nmoles respectively. […] Following the second infusion animals were returned to their cages, and observed continuously over the subsequent 2 hours.

male F344 rats = assay: as above; assay type: in vivo
Protocol: as §1, §2, §3, §4, §5

hippocampal neurons [4] = assay: Histological analysis of brain (cresyl violet) seven days after ICV infusion; assay type: in vivo, rats
Protocol: as §1, §2, §3
Seven days after the compounds were administered, animals were sacrificed by transcardial perfusion with neutralized, buffered 10% formalin-saline. Their brains were removed, post-fixed overnight in 10% formalin-saline, and sectioned along the coronal plane (into 50 µm thick sections) on a freezing microtome. The sections were stained with cresyl violet to determine the extent of cellular destruction. […]
Given that high concentrations of metabotropic receptors are located in the hippocampus, and that the hippocampus is particularly vulnerable to the effects of a variety of insults including ischemia and hypoxia, this region was examined for evidence of neuronal degeneration due to glutamate excitoxicity.

With N[C@@H](Cn1oc(=O)[nH]c1=O)C(=O)O [Quisqualate, quisqualate] the “HISTOLOGICAL CHANGES” value (hippocampal neurons [1]) was “loss of neurons in the piriform and entorhinal cortex. CA1 and dentate gyrus regions of the hippocampus”, the fold induction at 100 µM [2] was 3 ± 0.05 and the mortality ([3]; 225 nmol, Quisqualate 225 nmoles ICV, read-out: death, cases) was 60%. The mortality ([3]; 250 nmol, Quisqualate 250 nmoles ICV, read-out: death, cases) was 75%, the mortality ([3]; Quisqualate 1 µmoles ICV, read-out: dead, cases) was 100% and the “effective dose (to produce behavioral and histological changes)” value (male F344 rats; ICV, rats, pilot testing) was 225 nmoles. The BEHAVIOR (male F344 rats; Quisqualate 100 nmoles ICV, rats, reflex score 0 normal, 3 severely abnormal) was “-teeth chatter; also recorded: -mild scratching; also recorded: -hind leg weakness 60 minutes; also recorded: -normal placement and clasp reflex (0)”, the BEHAVIOR (male F344 rats; Quisqualate 150 nmoles ICV, rats, reflex score 0 normal, 3 severely abnormal) was “-teeth chatter; also recorded: -localized twitches; also recorded: -mild hyperactivity walking in circles; also recorded: -hind leg weakness for 60 minutes; also recorded: -normal placement and clasp reflex (0)” and the BEHAVIOR (male F344 rats; Quisqualate 150 nmoles ICV, rats, reflex score 0 normal, 3 severely abnormal, listed as quisqualate) was “an increase in activity and teeth chattering”. The BEHAVIOR (male F344 rats; Quisqualate 200 nmoles ICV, rats, reflex score 0 normal, 3 severely abnormal) was “-teeth chatter; also recorded: -occasional mild convulsions; also recorded: -hyperactivity - circle walking; also recorded: -episodic akinesia/tonic immobility; also recorded: -hind leg weakness; also recorded: -normal limb clasp and placement reflex (0)”, the “death, cases” value (male F344 rats; Quisqualate 225 nmoles ICV, rats) was “-death in 60% of cases” and the BEHAVIOR (male F344 rats; Quisqualate 225 nmoles ICV, rats, reflex score 0 normal, 3 severely abnormal) was “moderate convulsions”. For the same molecule, the BEHAVIOR (male F344 rats; Quisqualate 250 nmoles ICV, rats, reflex score 0 normal, 3 severely abnormal) was “-localized spasms jerking/twitching; also recorded: -full body convulsions-severe/repeated; also recorded: -foaming at mouth; also recorded: -respiratory distress; also recorded: -abnormal placement and clasp reflex (3); also recorded: -vocalization; also recorded: -teeth chattering; also recorded: -scratching”, the BEHAVIOR (male F344 rats; Quisqualate 250 nmoles ICV, rats, reflex score 0 normal, 3 severely abnormal, listed as quisqualate) was “severe convulsions and death” and the BEHAVIOR (male F344 rats; Quisqualate 1 µmoles ICV, rats) was “-severe repeated full body convulsions; also recorded: -severe scratching; also recorded: -severe teeth chattering; also recorded: -foaming at mouth”. For the same molecule, the time to death (male F344 rats; Quisqualate 1 µmoles ICV, rats) was 5 to 15 min, the BEHAVIOR (male F344 rats; Quisqualate 500 µmoles ICV, rats) was “vocalization” and the “duration of teeth chattering, akinesia and mobilization” value (male F344 rats; quisqualate alone 225 nmoles vs lysosphingolipids alone and vs quisqualate 225 nmoles + lysophingomyelin 150 nmoles, Fig. 9) was “significantly (p< .01) more time engaged in these behaviors”. The number of convulsions/spasms (male F344 rats; quisqualate alone at 225 nmoles ICV compared to all other groups, 2 hours observation, Fig. 8) was “significantly (p.<01) more convulsions/spasms”, the “HISTOLOGICAL CHANGES” value (hippocampal neurons [4]; Quisqualate 100 nmoles ICV, rats) was “none observed” and the “HISTOLOGICAL CHANGES” value (hippocampal neurons [4]; Quisqualate 150 nmoles ICV, rats) was “none observed”. The “HISTOLOGICAL CHANGES” value (hippocampal neurons [4]; Quisqualate 225 nmoles ICV, rats, seven days after) was “loss of CA1 pyramidal neurons in the hippocampus”, the “HISTOLOGICAL CHANGES” value (hippocampal neurons [4]; Quisqualate 225 nmoles ICV, rats, seven days after, listed as quisqualate) was “severe loss of neurons in the hippocampus; also recorded: a considerable loss of CA1 pyramidal neurons in the hippocampus” and the “HISTOLOGICAL CHANGES” value (hippocampal neurons [4]; Quisqualate 250 nmoles ICV, 'as above' = loss of neurons in the piriform and entorhinal cortex, CA1 and dentate gyrus regions of the hippocampus, listed as quisqualate) was “severe loss of neurons in the hippocampus”.
